Each structure is given as a SMILES string.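 Five compound concentrations were applied to cells in 96-well plates for 48 hours; endpoints were derived by simple linear interpolation of the resulting dose-response curve. GI50 = concentration required for 50% inhibition of growth. TGI: total growth inhibition.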 Where a SMILES comes first, the peptide text is derived from it. The star is where a group is joined. Boc = CC(C)(C)OC(=O)* Where only a bound is given, the exact number is not on record here.

Common to all, as to experiment: inhibition of tumour cell growth, NCI panel, 48 h
Test [1] has as its system SF-295 CNS.
For test [2], the system named is 786-0 renal.
Test [3] has as its system HL-60(TB) leukemia.
The subject of test [4] is NCI-H522 lung.
Test [5] concerns HOP-92 NSCLC.
Test [6] relates to SNB-75 CNS.
Test [7] concerns LOX IMVI melanoma.
Test [8] concerns MOLT-4 leukemia.
Test [9] deals with KM12 colon.

Take `CC(=O)C(CN(CC(C)C)CC(C)C)C(c1ccccc1)c1c(O)c2ccccc2oc1=O` (stereo not drawn): the TGI in [1], in test [2], in [3], in test [4], in test [5] and in [6] was more than 100 µM in each case. In addition, the TGI in test [7] and in [8] was more than 100 µM throughout.
With `CCN(CC)CC1c2ccccc2C(CNc2ccccc2)N1C` (stereo not drawn), the TGI in [1], in test [2], in test [3], in test [4], in [5] and in test [9] was more than 100 µM in each case. The TGI in test [6], in test [7] and in test [8] was more than 100 µM in each case.
`Fc1ccc(C2SCc3nc4ccccc4n32)c(F)c1` (stereo not drawn): the TGI was more than 100 µM in [1]; more than 100 µM in test [2]; 56.2 µM in [3]; more than 100 µM in [4]; 92.4 µM in test [5]; more than 100 µM in test [9]. Further, the TGI in test [6], in [7] and in [8] was more than 100 µM in each case.
As to `COC(=O)C1CC2CC(=NNC(N)=O)CC2C1` (stereo not drawn), the TGI in test [1], in [2], in test [3], in test [4], in test [5] and in test [9] was more than 100 µM each time. For the same molecule, the TGI in test [6], in test [7] and in test [8] was more than 100 µM in each case.
`CCCP1(=O)C=C(C)C(=C(Cl)Cl)C(C)=C1` (stereo not drawn): the TGI is more than 100 µM in test [1]; more than 100 µM in test [2]; 54.7 µM in test [3]; 36.5 µM in test [4]; 89.6 µM in [5]; 67.9 µM in test [9]. The same molecule came in with a TGI in [8] of 98.6 µM.
As to `Cc1c(/C=N/N=C/c2[nH]c(C(=O)OC(C)(C)C)c(C)c2C)[nH]c(C(=O)OC(C)(C)C)c1C`, the TGI in test [1], in test [2], in test [3], in test [4], in test [5] and in test [9] was more than 100 µM each time. Further, the TGI in test [6] was 88.1 µM; in test [7], more than 100 µM; in test [8], more than 100 µM.
Turning to `O=C1c2cccnc2C(=O)c2c1c(C(=O)NCCCN1CCCCC1)c1ccccn21`, the GI50 in [1] was 0.845 µM; in [2], 1.18 µM; in [4], 1.08 µM; in [5], 2.33 µM; in [9] it was 0.99 µM; in test [6], 1.36 µM. Besides, the GI50 in test [7] is 0.49 µM; in [8] it was 0.867 µM. The TGI in [1] was 8.45 µM; in test [2], 8.06 µM; in test [4] it was 3.45 µM; in test [5], 4.9 µM; in [9], 10.1 µM; in test [6], 2.86 µM. Besides, the TGI was 2.03 µM in test [7] and more than 100 µM in [8].
As for `COc1ccc(-c2cc(Cc3cccs3)c(=O)[nH]n2)cc1`, the TGI in test [1], in test [2], in test [5], in test [9] and in [6] was more than 100 µM throughout.
On to `CC(=O)Nc1ccc(SC#N)c2c(NC(C)=O)cccc12`, for which the TGI in test [1] is more than 100 µM; in [2], more than 100 µM; in [3], 71.5 µM; in [4], more than 78.4 µM; in [5], more than 94.8 µM; in test [9], more than 100 µM. The TGI in test [6] was more than 100 µM; in test [7], more than 100 µM; in test [8], more than 82.1 µM.
`CCOC(=O)C1C(=S)NC(=O)C1C#N` (stereo not drawn): the TGI in test [1], in [2], in test [3], in test [4], in test [5] and in test [9] was more than 100 µM throughout. Further, the TGI in [6], in test [7] and in [8] was more than 100 µM throughout.
Take `CCCCCCCCCCCCCCCCCC1=NCCN1CCOC1=C(Cl)C(=O)c2ccccc2C1=O`: the GI50 in [2] is 2.19 µM; in test [3], 1.34 µM; in test [4] it was 1.79 µM; in [5], 1.78 µM; in test [9] it was 1.91 µM; in test [6] it was 2.2 µM. Moreover, the GI50 in test [8] is 0.747 µM. For the same molecule, the TGI stood at 4.09 µM in test [2]; 6 µM in [3]; 3.38 µM in test [4]; 3.4 µM in [5]; 3.61 µM in test [9]; 8.54 µM in [6]. In test [8], this molecule came in with a TGI of 3.8 µM.
Turning to `Cc1ccc2c(C3Cc4ccccc4N3C(=O)/C=C\C(=O)O)c(C)[nH]c2c1` (stereo not drawn), the TGI in [1] is more than 100 µM; in [2] it was more than 100 µM; in [3] it was 43.8 µM; in test [4], 48.6 µM; in test [5], 84.1 µM; in [9], more than 100 µM. The TGI in test [6] was more than 100 µM; in [7] it was more than 100 µM; in [8] it was 94.6 µM.
Turning to `Cc1cccc(C)c1NC(=O)/C(=N/NC(N)=S)C(C)C(=O)c1ccc(Cl)cc1` (stereo not drawn), the TGI in test [1], in test [2], in test [3], in [4], in test [5] and in [9] was more than 100 µM each time. For the same molecule, the TGI in test [6] and in test [8] was more than 100 µM throughout.
Take `CC#CCC1CCC(OCC)=CC1=O` (stereo not drawn): the TGI in test [1], in test [2], in [3], in test [4], in test [5] and in test [9] was more than 100 µM each time. Moreover, the TGI in [6], in test [7] and in [8] was more than 100 µM each time.
With `COc1ccc(C=O)c([N+](=O)[O-])c1`, the TGI was 64.9 µM in test [1]; more than 100 µM in test [2]; 23.6 µM in test [3]; more than 100 µM in [4]; more than 100 µM in [5]; more than 100 µM in [9]. Also, the TGI in test [6], in test [7] and in test [8] was more than 100 µM throughout.
Regarding `Cc1[nH]c2ccccc2c1C(=O)CC1(O)C(=O)Nc2c(Cl)cc(Cl)cc21` (stereo not drawn), the TGI is 56.2 µM in test [1]; more than 100 µM in test [2]; 37.6 µM in [3]; 32.9 µM in test [4]; more than 100 µM in test [9]; more than 100 µM in test [6]. The TGI in [7] was found to be 72.5 µM; in [8], 55.1 µM.
For the molecule `CC(=O)NC(CCCNC(=O)N(CCCl)N=O)C(=O)NCc1ccccc1` (stereo not drawn), the TGI in test [1], in test [2], in test [3], in test [4], in [5] and in test [9] was more than 100 µM each time. The TGI in test [6] and in test [8] was more than 100 µM in each case.
Regarding `CCC(=O)C12OC3OC(C)(C)OC3C1OC(C)(C)O2` (stereo not drawn), the TGI in test [1], in test [2], in test [3], in test [4], in test [5] and in test [9] was more than 100 µM in each case. Besides, the TGI in test [6] and in test [8] was more than 100 µM in each case.
As for `COC(=O)C1(C)CCc2c(OC)ccc(OC)c2C1=O` (stereo not drawn), the TGI in test [1], in [2], in test [3], in test [4], in [9] and in test [6] was more than 100 µM in each case. In addition, the TGI in [7] and in test [8] was more than 100 µM each time.
Consider `Cc1ccc(/C=C/C(=O)C(C)(C)CN2CCCCC2)cc1`, for which the TGI in test [1] is 21.3 µM; in [2] it was 18.9 µM; in [4] it was 13.7 µM; in [9], 13.4 µM; in test [6], 19.5 µM; in test [7], 23.4 µM. This molecule also registered a TGI in test [8] of 7.55 µM.
For the molecule `O=C1NC(=O)C2C(=O)NC(=O)C1C2c1c(Cl)cccc1Cl` (stereo not drawn), the TGI was more than 100 µM in test [1]; more than 100 µM in test [2]; more than 63.4 µM in test [3]; more than 100 µM in [4]; more than 100 µM in test [5]; more than 100 µM in test [9]. Further, the TGI in [6] was more than 100 µM; in test [7] it was more than 57.4 µM; in test [8] it was more than 100 µM.
With `COc1ccc2c(c1)C(=O)C1CC(=O)CCC21` (stereo not drawn), the TGI in test [1], in [2], in test [3], in test [4], in test [5] and in test [9] was more than 100 µM throughout. For the same molecule, the TGI in test [6], in test [7] and in test [8] was more than 100 µM each time.
Take `O=C1OC(Cc2ccccc2)(N2CCCC2=O)C1c1ccccc1` (stereo not drawn): the TGI in test [1], in test [2], in test [3], in test [4], in [5] and in test [9] was more than 100 µM throughout. Besides, the TGI in test [6] and in test [8] was more than 100 µM each time.
`CC(C)(C)OC(=O)NC(Cc1ccc(O)cc1)C(=O)N1CCCC1C(=O)O` (stereo not drawn) (Boc-Tyr-Pro-OH; configuration not given here): the TGI in [1], in [2], in test [3], in test [4], in test [5] and in test [9] was more than 100 µM throughout. In addition, the TGI in test [6], in test [7] and in test [8] was more than 100 µM each time.
Turning to `N#CC(=C1C=CC(=NO)C=C1)c1ccc(Cl)cc1`, the TGI in test [1] turned out to be 48 µM; in [2], 5.69 µM; in test [3] it was 9.6 µM; in [4] it was 7.66 µM; in test [5], 44.8 µM; in test [9] it was 3.98 µM. Besides, the TGI is more than 100 µM in [6], 12 µM in test [7] and 39.5 µM in [8].
For the molecule `Cc1ccc(-c2nnc(-c3nn(-c4ccccc4)c4nc5ccccc5nc34)o2)cc1`, the TGI in test [1] was 36.8 µM; in test [2], 21.6 µM; in test [3] it was more than 100 µM; in [4], 48.7 µM; in test [5], 20.9 µM; in test [9] it was more than 100 µM. For the same molecule, the TGI was 8.3 µM in test [6], 40.9 µM in test [7] and more than 100 µM in test [8].
For the molecule `COc1cc2c(c(OC)c1OC)-c1ccc(SC)c(=O)cc1C(NC(=O)c1ccccc1)CC2` (stereo not drawn), the TGI in test [1] is less than 0.0133 µM; in test [2], 38.3 µM; in [3], less than 0.0127 µM; in test [4], less than 0.0316 µM; in test [5], 3.79 µM; in test [9], 0.0357 µM. Also, the TGI in test [6] was found to be 4.01 µM; in [7], 62.2 µM; in [8], 43.4 µM.
On to `CC/C=C\C/C=C\C/C=C\CCCCCCCC(=O)OCC(O)CO` (stereo not drawn), for which the TGI in test [1] is more than 100 µM; in test [2] it was more than 100 µM; in test [3], more than 46 µM; in test [4] it was more than 77.1 µM; in [5] it was more than 100 µM; in [9], more than 70.9 µM. In addition, the TGI in [6] is more than 100 µM; in test [7], more than 59.6 µM; in [8], more than 63.5 µM.
Regarding `O=C(NC1CCCCC1)NS(=O)(=O)c1ccc2c(c1)CCC2`, the TGI in [1], in [2], in test [3], in [4], in [5] and in test [9] was more than 100 µM throughout. In addition, the TGI in [6], in test [7] and in test [8] was more than 100 µM each time.

The values are drawn from PubChem BioAssay (NCI).
